Measured values taken from publication PMC9112332, “Structure-Based Design of α-Substituted Mercaptoacetamides as Inhibitors of the Virulence Factor LasB from Pseudomonas aeruginosa” (ACS Infectious Diseases, 2022).
Where two headings read alike, the source gives them in different places.

Experiments:
LasB [1] = target: T1, LasB (Pseudomonas aeruginosa, UniProt Q02RJ6); settings: Figure 1; read-out: IC50 (reported LasB inhibitors, Figure 1); cited from earlier work
ColH-PD = ColH-PD (Hathewaya histolytica, UniProt Q46085); assay: biochemical; set-up: species or system C. histolyticum
P. aeruginosa PA14 = assay: Antibacterial activity (MIC) assay; format: cell-based, Pseudomonas aeruginosa
MMP-1 = target: T2, MMP-1 (Homo sapiens, UniProt P03956); assay: Human off-target inhibition assay, MMP-1; format: biochemical
T2 sequence (P03956 100-469): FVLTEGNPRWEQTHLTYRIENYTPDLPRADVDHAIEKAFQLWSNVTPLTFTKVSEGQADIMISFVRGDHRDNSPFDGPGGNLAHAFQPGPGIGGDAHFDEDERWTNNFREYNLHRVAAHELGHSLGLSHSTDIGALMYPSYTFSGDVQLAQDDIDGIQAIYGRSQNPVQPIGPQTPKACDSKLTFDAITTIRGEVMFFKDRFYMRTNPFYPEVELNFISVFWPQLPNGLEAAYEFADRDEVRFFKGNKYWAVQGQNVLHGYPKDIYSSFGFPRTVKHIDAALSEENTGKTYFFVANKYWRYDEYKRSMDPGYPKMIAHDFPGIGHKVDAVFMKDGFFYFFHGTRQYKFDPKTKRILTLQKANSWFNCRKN

MMP-2 = target: T3, MMP-2 (Homo sapiens, UniProt P08253); assay: Human off-target inhibition assay, MMP-2; format: biochemical
T3 sequence (P08253 110-660): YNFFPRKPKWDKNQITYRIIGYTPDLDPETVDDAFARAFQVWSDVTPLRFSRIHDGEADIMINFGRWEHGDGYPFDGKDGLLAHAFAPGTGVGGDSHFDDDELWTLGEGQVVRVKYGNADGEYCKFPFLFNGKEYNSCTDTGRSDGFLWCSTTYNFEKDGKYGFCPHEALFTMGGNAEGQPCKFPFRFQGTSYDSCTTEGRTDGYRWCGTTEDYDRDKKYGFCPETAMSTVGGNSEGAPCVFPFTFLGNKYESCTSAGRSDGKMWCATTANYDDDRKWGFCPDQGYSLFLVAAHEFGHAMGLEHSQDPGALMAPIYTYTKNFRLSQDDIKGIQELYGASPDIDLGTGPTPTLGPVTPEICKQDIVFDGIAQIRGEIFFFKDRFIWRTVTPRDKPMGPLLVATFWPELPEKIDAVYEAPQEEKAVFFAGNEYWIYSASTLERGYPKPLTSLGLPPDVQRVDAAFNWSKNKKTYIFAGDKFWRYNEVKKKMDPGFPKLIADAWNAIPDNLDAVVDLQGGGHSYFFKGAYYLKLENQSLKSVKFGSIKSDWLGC

MMP-3 = MMP-3 (Homo sapiens, UniProt P08254); assay: Human off-target inhibition assay, MMP-3; format: biochemical
MMP-7 = target: T4, MMP-7 (Homo sapiens, UniProt P09237); assay: Human off-target inhibition assay, MMP-7; format: biochemical
T4 sequence (P09237 95-267): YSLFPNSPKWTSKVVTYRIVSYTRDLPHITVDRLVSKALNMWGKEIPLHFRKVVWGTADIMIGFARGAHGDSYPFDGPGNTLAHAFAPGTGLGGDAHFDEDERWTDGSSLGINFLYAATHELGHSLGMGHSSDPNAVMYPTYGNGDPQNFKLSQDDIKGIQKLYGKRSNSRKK

MMP-8 = MMP-8 (Homo sapiens, UniProt P22894); assay: Human off-target inhibition assay, MMP-8; format: biochemical
MMP-14 = MMP-14 (Homo sapiens, UniProt P50281); assay: Human off-target inhibition assay, MMP-14; format: biochemical
ADAM17 = ADAM17 (Homo sapiens, UniProt P78536); assay: Human off-target inhibition assay, ADAM17 (TACE); format: biochemical
HDAC-3 = HDAC-3 (Homo sapiens, UniProt O15379); assay: Human off-target inhibition assay, HDAC-3; format: biochemical
Protocol: (§1) Table 3 Activities of Four LasB Inhibitors against the Selected MMPs (% of inhibition at 100 μM) and Further Human Off-Targets ^a | column: 3; 12; 13; 23

HDAC-8 = target: T5, HDAC-8 (Homo sapiens, UniProt Q9BY41); assay: Human off-target inhibition assay, HDAC-8; format: biochemical
T5 sequence (Q9BY41 1-377): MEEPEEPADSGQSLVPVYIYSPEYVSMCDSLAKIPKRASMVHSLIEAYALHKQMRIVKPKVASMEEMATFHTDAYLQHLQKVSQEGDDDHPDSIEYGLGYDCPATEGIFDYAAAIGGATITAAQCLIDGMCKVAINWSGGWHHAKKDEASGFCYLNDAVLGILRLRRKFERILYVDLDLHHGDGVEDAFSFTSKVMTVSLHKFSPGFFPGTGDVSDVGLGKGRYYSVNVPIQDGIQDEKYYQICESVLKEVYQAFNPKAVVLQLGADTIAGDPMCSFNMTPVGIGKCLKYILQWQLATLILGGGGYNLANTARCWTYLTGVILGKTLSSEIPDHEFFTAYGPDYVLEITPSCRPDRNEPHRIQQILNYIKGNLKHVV
Protocol: as §1

[2] = Cytotoxicity assay, HepG2; format: cell-based; settings: HepG2 cells; human hepatoma cell line
[3] = Cytotoxicity assay, HEK293; format: cell-based; settings: HEK293 cells; human embryonic kidney cells
Cytotoxicity assay, A549 = format: cell-based; settings: A549 cells; adenocarcinomic human alveolar basal epithelial cells
zebrafish embryos = assay: Zebrafish embryo toxicity (maximum tolerated concentration) assay; format: in vivo
[4] = tested on: A549 cells treated with ΔlasB PA14 supernatant; format: cell-based, human; settings: 15% (v/v) ΔlasB PA14 supernatant, MTT
G. mellonella larvae = assay: In vivo Galleria mellonella virulence assay; settings: compound with wt PA14 supernatant, after 6 days
[5] = tested on: A549 cells treated with wt PA14 supernatant; settings: 15% (v/v) wt PA14 supernatant, MTT
[6] = tested on: A549 cells treated with wt PA14 supernatant; assay: cells; settings: Homo sapiens, A549, 24 h, read-out: increase in viability of A549 cells
LasB [7] = target: T1, LasB; assay: LasB inhibition assay (FRET-based, in vitro); settings: for activity of pure LasB: 0.3 nM pure LasB
Protocol: LasB Inhibition Assay. The purification of LasB from P. aeruginosa P14 supernatant as well
as the subsequent performance of the FRET-based in vitro inhibition assay was performed as
described previously.1 All samples were run in duplicate for each condition, and experiments
were performed independently at least twice.

T1 sequence (Q02RJ6 198-498): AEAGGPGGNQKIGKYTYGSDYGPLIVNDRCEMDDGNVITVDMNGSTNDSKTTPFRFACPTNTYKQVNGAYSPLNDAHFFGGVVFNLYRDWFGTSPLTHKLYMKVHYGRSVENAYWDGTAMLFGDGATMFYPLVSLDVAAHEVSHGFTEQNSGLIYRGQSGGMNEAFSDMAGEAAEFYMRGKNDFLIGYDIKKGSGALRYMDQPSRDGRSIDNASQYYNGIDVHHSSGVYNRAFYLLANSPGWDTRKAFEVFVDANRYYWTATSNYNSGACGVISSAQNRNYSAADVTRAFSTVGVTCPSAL
Chain of MMP-3 (P08254 100-477): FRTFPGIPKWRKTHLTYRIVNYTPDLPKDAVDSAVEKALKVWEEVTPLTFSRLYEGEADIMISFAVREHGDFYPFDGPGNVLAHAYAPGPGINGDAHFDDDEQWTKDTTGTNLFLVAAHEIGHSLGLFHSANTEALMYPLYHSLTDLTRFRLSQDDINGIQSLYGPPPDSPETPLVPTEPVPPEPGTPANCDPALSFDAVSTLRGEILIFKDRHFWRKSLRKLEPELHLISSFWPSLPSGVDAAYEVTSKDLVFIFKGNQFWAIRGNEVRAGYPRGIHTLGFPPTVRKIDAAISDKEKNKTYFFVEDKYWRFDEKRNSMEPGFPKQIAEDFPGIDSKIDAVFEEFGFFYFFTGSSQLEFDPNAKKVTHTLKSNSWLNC
Chain of MMP-8 (P22894 101-467): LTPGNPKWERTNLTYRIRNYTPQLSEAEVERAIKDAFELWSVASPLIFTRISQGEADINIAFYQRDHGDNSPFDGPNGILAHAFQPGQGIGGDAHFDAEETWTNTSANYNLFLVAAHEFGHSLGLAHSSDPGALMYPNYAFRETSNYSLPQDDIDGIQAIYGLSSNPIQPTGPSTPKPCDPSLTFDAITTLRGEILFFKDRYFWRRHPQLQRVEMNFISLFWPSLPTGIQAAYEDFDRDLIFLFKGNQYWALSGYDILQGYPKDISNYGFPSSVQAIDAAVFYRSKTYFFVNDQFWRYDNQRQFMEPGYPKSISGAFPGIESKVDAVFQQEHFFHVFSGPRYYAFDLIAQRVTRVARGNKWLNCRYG
Chain of HDAC-3 (O15379 whole entry): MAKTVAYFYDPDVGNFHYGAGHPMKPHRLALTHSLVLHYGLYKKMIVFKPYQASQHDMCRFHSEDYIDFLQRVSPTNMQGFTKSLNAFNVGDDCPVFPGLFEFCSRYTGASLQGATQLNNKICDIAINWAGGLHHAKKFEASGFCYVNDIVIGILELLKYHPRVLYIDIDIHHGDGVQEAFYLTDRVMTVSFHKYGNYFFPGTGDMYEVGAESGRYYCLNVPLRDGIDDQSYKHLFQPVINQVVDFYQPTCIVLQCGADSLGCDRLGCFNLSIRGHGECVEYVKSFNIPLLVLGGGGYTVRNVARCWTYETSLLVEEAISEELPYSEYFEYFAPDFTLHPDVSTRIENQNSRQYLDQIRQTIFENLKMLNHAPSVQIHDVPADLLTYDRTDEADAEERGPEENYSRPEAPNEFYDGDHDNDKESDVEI
Chain of HDAC-3 (Q9Y618 395-489 partner limits assumed): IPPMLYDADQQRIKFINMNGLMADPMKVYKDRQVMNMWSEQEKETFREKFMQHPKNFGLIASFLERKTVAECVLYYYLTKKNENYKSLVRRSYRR
Chain of ColH-PD (Q46085 331-721 limits assumed): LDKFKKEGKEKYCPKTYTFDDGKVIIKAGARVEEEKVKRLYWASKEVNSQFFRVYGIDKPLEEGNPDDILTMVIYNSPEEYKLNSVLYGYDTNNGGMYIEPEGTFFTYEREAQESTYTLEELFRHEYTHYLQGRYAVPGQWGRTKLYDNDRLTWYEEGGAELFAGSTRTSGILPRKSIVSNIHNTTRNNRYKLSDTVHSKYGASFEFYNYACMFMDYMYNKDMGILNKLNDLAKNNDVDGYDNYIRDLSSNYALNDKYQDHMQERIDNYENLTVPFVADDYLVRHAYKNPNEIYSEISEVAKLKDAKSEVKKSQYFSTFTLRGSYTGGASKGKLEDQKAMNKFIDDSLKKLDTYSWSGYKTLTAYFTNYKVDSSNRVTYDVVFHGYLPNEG
Chain of ADAM17 (P78536 215-824): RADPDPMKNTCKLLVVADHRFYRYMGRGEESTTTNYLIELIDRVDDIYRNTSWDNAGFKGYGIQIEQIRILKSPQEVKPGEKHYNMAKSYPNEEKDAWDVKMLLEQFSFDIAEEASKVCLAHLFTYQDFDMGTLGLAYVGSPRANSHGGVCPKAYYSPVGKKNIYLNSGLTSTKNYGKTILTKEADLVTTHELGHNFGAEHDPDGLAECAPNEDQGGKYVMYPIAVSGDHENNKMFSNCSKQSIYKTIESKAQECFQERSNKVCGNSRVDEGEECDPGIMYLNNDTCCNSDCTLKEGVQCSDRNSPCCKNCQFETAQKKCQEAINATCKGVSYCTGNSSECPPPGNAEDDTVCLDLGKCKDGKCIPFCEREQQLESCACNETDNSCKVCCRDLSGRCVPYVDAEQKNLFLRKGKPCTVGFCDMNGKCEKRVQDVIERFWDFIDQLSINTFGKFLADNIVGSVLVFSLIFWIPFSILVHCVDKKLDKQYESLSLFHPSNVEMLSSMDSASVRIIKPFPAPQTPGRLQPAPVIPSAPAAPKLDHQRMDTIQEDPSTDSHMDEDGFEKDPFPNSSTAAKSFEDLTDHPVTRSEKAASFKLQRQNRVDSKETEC

For `O=C(O)CC1(C(=O)NCc2nc3ccccc3s2)Cc2ccccc2C1` [Compound 1], the IC50 (LasB [1]) is listed as 0.159 µM.
For `O=C(CC(=O)Nc1ccc(Cl)c(Cl)c1)NO` [Compound 2], the IC50 (LasB [1]) is given as 17.4 µM.
With `O=C(Nc1nc2ccccc2s1)C(S)Cc1ccccc1` (stereo not shown) [Compound 23, N-(Benzo[d]thiazol-2-yl)-2-mercapto-3-phenylpropanamide] the Ki (ColH-PD) was 0.1 ± 0.01 µM, the MIC (P. aeruginosa PA14; Pseudomonas aeruginosa, P. aeruginosa PA14) was over 100 µM and the “reduction of bacterial growth” value (P. aeruginosa PA14; at 100 μM) was “less than 10%”. For the same compound, the inhibition at 100 µM (MMP-1) was under 10%, the inhibition at 100 µM (MMP-2) was under 10% and the inhibition at 100 µM (MMP-3) was under 10%. For the same compound, the inhibition at 100 µM (MMP-7) was under 10%, the inhibition at 100 µM (MMP-8) was under 10% and the inhibition at 100 µM (MMP-14) was under 10%. For the same compound, the IC50 (ADAM17) was 10.4 ± 0.2 µM, the IC50 (HDAC-3) was over 100 µM and the IC50 (HDAC-8) was over 100 µM. It also gave an IC50 [2] of over 100 µM, an IC50 [3] of over 100 µM and an IC50 (Cytotoxicity assay, A549) of over 100 µM. For the same compound, the Survival rate % (zebrafish embryos; 2 µM) was 100%, the Survival rate % (zebrafish embryos; 30 µM) was 70% and the “toxicity (larvae with toxicity signs)” value (zebrafish embryos; 30 µM, Table S2) was 30%. For the same compound, the embryo observation (zebrafish embryos; 50 µM, 2 dpf) was “imp. dev”, the embryo observation (zebrafish embryos; 50 µM, 3 dpf) was 5 imp. dev and the embryo observation (zebrafish embryos; 50 µM, 4 dpf) was 5 imp. dev. For the same compound, the embryo observation (zebrafish embryos; 50 µM, 5 dpf) was 5 imp. dev, the Survival rate % (zebrafish embryos; 100 µM) was 0% and the embryo observation (zebrafish embryos; 100 µM, 2 dpf) was “imp. dev”. It also gave an embryo observation (zebrafish embryos; 100 µM, 3 dpf) of 5 imp. dev, an embryo observation (zebrafish embryos; 100 µM, 4 dpf) of 5 imp. dev and an embryo observation (zebrafish embryos; 100 µM, 5 dpf) of 5 imp. dev. For the same compound, the “maximum tolerated concentration (MTC)” value (zebrafish embryos; zebrafish embryos, until 120 hpf) was at most 30 µM, the “effect on A549 cells treated with ΔlasB PA14 supernatant (in words)” value [4] was “no effect” and the survival of larvae (G. mellonella larvae) was 70 ± 5%. The “effect on viability of A549 cells treated with wt PA14 supernatant (in words)” value [5] was “Dose-dependent effect”, the viability at 50 µM [6] was 80 ± 15% and the IC50 (LasB [7]) was 0.7 ± 0.1 µM. For the same compound, the “ligand efficiency (LE)” value (LasB [7]; calculated from LasB activity) was 0.48 and the “lipophilic ligand efficiency (LLE)” value (LasB [7]; calculated from LasB activity) was 3.21.
In the case of `Cl.O=C(O)CCP(CCC(=O)O)CCC(=O)O` [TCEP, Tris(2-carboxyethyl)phosphine hydrochloride], the “viability of A549 cells” value (A549 cells) is reported as “no effect on cell viability”, the “activity of pure LasB” value (LasB [7]; 0.6 mM TCEP and lower) is reported as “no inhibition” and the “activity of pure LasB” value (LasB [7]; 5 mM and […] TCEP) is reported as “completely lost”.
